Molecules are shown by their SMILES.

Data on 89 compounds can be found in a melting point compilation (Tetko et al.; mined from patent text by program, amines drawn as free bases though some values may be those of a salt).

As a reminder, the melting point is the temperature, or range, at which the solid turns liquid.

`O=C1c2cccc3cc(OS(=O)(=O)C(F)(F)F)cc(c23)C(=O)N1O`: the melting point was 167 to 169 °C. To `COC(=O)Cc1ccc(S(C)(=O)=O)c(Cl)c1` belongs 54 to 57 °C.

The compound `CC(C)C(=O)NCCCn1c(CCO)nc2c(N)nc3ccccc3c21` yielded a melting point of 196 to 198 °C. Consider `COc1cc(COC2CCN(C(=O)c3ccc([N+](=O)[O-])cc3)CC2)cc(OC)c1OC`, for which the melting point came out at 124 °C.

Regarding `O=C1NC(=O)C(Cc2ccc(OCC3CCN(C(=O)OCc4ccccc4)CC3)cc2)S1` (centres undefined), the melting point lay in the range of 54 to 56 °C.

Compound `CC(C)CC(CP(=O)(O)CNCCc1ccccc1)C(=O)N(c1ccc(-c2ccccc2)cc1)[C@@H](C)C(=O)O` (some centres undefined) yielded a melting point of 229 to 230 °C.

In turn, `NC(=O)C1=NN(c2ccccc2)C(C(=O)O)=NN1c1ccccc1` displayed a melting point of 241 to 242 °C. Compound `CCOC(=O)c1ccc(CCN(C)CCCC(C#N)(C(=O)OC)c2ccc(OC)c(OC)c2)cc1` (centres undefined) gave a melting point of 88 to 89 °C. Turning to `NC(=O)c1ccc(F)c2c1CC(N(CCc1c[nH]c3ccc(F)cc13)CC1CC1)CO2` (centres undefined), the melting point amounted to 132 °C. In turn, `COC(=O)c1ccc(SC)c(OC(C)C)c1` showed a melting point of 41 to 43 °C. With `CCCNC(=O)c1ccccc1C(c1ccc(O)cc1)c1ccc(O)cc1`, the melting point came out at 202 °C. On to `O=C1Nc2ccc(Br)cc2C2(CCCCC2)O1`, for which the melting point fell in the range of 208 to 210 °C.

Turning to `Cc1ccc(NC(=O)c2cccc(C(F)(F)F)c2)cc1/C=C/n1cnc2c(Nc3ccc(P(C)(C)=O)cc3)ncnc21`, the melting point lay in the range of 230 to 234 °C.

In turn, `O=C(CCl)c1cccn1Cc1ccccc1[N+](=O)[O-]` had a melting point of 112 to 114 °C.

For `O=C1CCCC2=C1C(c1ccc(Cl)cc1)C1=C(CCCC1)N2` (centres undefined), the melting point was 253 to 254 °C. To `N#CC(NC(=O)c1cccn2ccnc12)c1ccco1` (centres undefined) belongs 149 to 151 °C; to `COCc1c(C(=O)c2ccccc2)ncc2[nH]c3ccc(OCc4ccccc4)cc3c12`, 165 °C. To `Cc1ccc(N=Cc2ccc(-c3ccccc3)cc2)cc1` belongs 137 to 139 °C.

Consider `CCCCCCNCCCS(=O)(=O)O`, for which the melting point is 144 to 147 °C.

`Cc1oc2cc(O)ccc2c(=O)c1C(N)=O`: the melting point was 289 to 290 °C. In the case of `O=C1CN(C(=O)C(Cl)Cl)N(Cc2ccc(Cl)c(Cl)c2)C(=O)N1`, the melting point was 196 °C. As to `CCOC(=O)c1cn(CCCN(C)C)c2nn(C)cc2c1=O`, the melting point is 120 to 121 °C. Turning to `CCCCCCCCCC(=O)CCC(C)=O`, the melting point fell in the range of 52 to 53 °C. `CCOC(=O)c1ncc2[nH]c3cccc(Oc4ccc(N)cc4)c3c2c1COC` returned a melting point of 222 to 224 °C.

On to `CN(c1ccc(OC(F)(F)F)cc1)C1CCN(C[C@@]2(C)Cn3cc([N+](=O)[O-])nc3O2)CC1`, for which the melting point is 133 to 134 °C. Turning to `CC1CCCCN1c1nc(N)nc(-c2cc(Cl)ccc2Cl)n1` (centres undefined), the melting point lay in the range of 136 to 137 °C.

In turn, `COc1nc(NNc2nc(OC)nc(OC)n2)nc(OC)n1` came in with a melting point of 222 to 224 °C. For `NC(=O)Cc1cccc(C(O)c2ccccc2)c1N` (centres undefined) the value was 198 to 199 °C; for `CCN[C@H]1CCN(c2c(-c3ccccc3)c(C)c(C#N)c3nc(C4CC4)oc23)C1`, 209 to 211 °C.

`CN(C)c1ccc(-c2nc3c(N[C@H]4[C@@H](C(N)=O)[C@@H]5C=C[C@H]4C5)ccnc3[nH]2)cc1` registered a melting point of 245 to 251 °C. Turning to `O=C(O)C(=CNc1ccc(O)c(=O)cc1)C(=O)O`, the melting point fell in the range of 175 to 176 °C.

For `Nc1cc(Oc2ccc3c(c2)OCCN3)ncn1`, the melting point was 140 to 141 °C. For `CN1CC(Cl)CC2c3cccc4[nH]cc(c34)CC21` (centres undefined) the value was 195 to 197 °C; for `c1ccc(-c2nc(COc3ccc(CCCCn4ccnc4)cc3)co2)cc1`, 113 to 114 °C; for `O=C(O)c1ccc(OCc2ccc(F)cc2)cc1`, 109 to 110 °C. For `COc1cc(Nc2nccc(-c3cccc(NC(=O)c4cc(C)on4)c3)n2)cc(OC)c1OC` the value was 173 to 175 °C; for `CSC1=Nc2cccnc2Nc2cscc21`, 138 to 140 °C; for `Brc1ccc(-c2c(-c3ccccc3)c(-c3ccccc3)c(-c3ccccc3)c(-c3ccccc3)c2-c2ccc(Br)cc2)cc1`, 245 °C. To `CC1(C)OC(=O)Nc2ccc(-c3ccc(F)c(C#N)c3)cc21` belongs 255 to 256 °C; to `CCCCCCCCCc1ccc(-c2ccc(OCC(OC3CCCCO3)C(F)(F)F)nn2)cc1` (centres undefined), 96.1 °C. As to `Cn1cc(Oc2ccc(Cl)cc2Cl)c(=O)c(-c2cccc(C(F)(F)F)c2)c1`, the melting point lay within 129 to 130 °C.

In turn, `O=C(CCN1CCN(c2ncccn2)CC1)N1CC2CC3CC(C2)CC1C3` registered a melting point of 117 to 119 °C. On to `COCCNC(=O)c1c(O)c2cc(Cl)ccc2n(C)c1=N`, for which the melting point lay within 209 to 211 °C.

`Nc1cc(Cl)c(Cl)c(Br)c1[N+](=O)[O-]` showed a melting point of 132 to 134 °C.

For `CCOC(=O)C(C)(C)Oc1ccc(-c2ccc(CCNC(=O)c3cccc(OC)c3OC)cc2)cc1`, the melting point was less than 20 °C. To `N#Cc1nn(-c2c(Cl)cc(C(F)(F)F)cc2Cl)cc1C1CC1` belongs 124 °C; to `O=c1[nH]c2ccccc2n1CCN1CCC(Nc2nc3cccnc3n2CCOCCO)CC1`, 177 °C; to `Nc1ccc(S(=O)(=O)C(F)(F)F)c2sc3ccccc3c12`, 108 °C.

Compound `CCc1c(Cl)cnc(N)c1F` came in with a melting point of 71 to 72 °C. To `CCOC(=O)N(c1ccc(Cl)cc1Cl)c1ccc(Cl)cc1-n1nc(C(=O)O)nc1CCl` belongs 186 °C. For `Cc1ccc(C2(C=O)C3CC4CC(C3)CC2C4)cc1` (centres undefined) the value was 93 to 97 °C. `CCOc1ccc(-c2nc(-c3ccc(N)c(C(=O)O)c3)cs2)cc1OCC` showed a melting point of 228 to 229 °C. To `COC(=O)C(c1ccccc1)(c1ccccc1)c1c[nH]c(C)n1` belongs 136 °C; to `CC(=O)OCc1c(O)cccc1[N+](=O)[O-]`, 113 to 114 °C. For `Nc1c(F)c(N2CC3NCCOC3C2)c(F)c2c1c(=O)c(C(=O)O)cn2C1CC1F` (centres undefined) the value was 292 to 294 °C. To `Cc1ccc(CCC(CO)n2cnc(C(N)=O)c2)cc1` (centres undefined) belongs 138 to 141 °C. `CCn1ncc(-c2ccc3c(c2)c(C2CCN(CCN4CCNC4=O)CC2)cn3-c2ccc(F)cc2)n1` yielded a melting point of 173 to 175 °C. For `COc1cc(OC)cc(OC(=O)N2CCCC2=O)c1` the value was 80 to 81 °C.

`CCC(CC)Oc1cc(C)nc(Nc2c(C)cc(C)cc2C)c1` came in with a melting point of 98 to 100 °C. To `CCOC(=O)c1ccc(C(=O)NS(=O)(=O)c2ccc(CCNC(C)=O)cc2)cn1` belongs 245 °C. For `CCOC(=O)C(C)n1ncc2ccc([N+](=O)[O-])cc21` (centres undefined) the value was 99.7 to 100 °C; for `O=C(Nc1cc(O)c(Cl)cc1O)c1ccc(O)c(F)c1`, 254 to 256 °C; for `CN(O)C(=O)NCCc1ccc2c(c1)OCO2`, 99 to 100 °C. With `Cc1cnc2nc(C(F)(F)F)n(C)c2c1`, the melting point came to 100 °C. For `CCOC(=O)c1cnc2ccn(Cc3ccccc3)n2c1=O` the value was 172 to 173 °C; for `COC(=O)c1ccc(OC(C)c2ccccc2OCc2ccccc2)cc1` (centres undefined), 90.8 to 91.5 °C.

Take `CCOC(=O)c1ccc2nc(-c3ccc(C)cc3)c(CN(C)C(=O)CC(C)C)n2c1`: the melting point lay in the range of 158 to 160 °C. As for `C#CCOc1cc(N2C(=O)c3ccccc3C2=O)c(F)cc1C#N`, the melting point worked out at 242 °C. On to `CCCn1nc(C(F)(F)CC)nc1Cc1ccc(-c2ccccc2-c2nnn[nH]2)nc1`, for which the melting point fell in the range of 142 to 144 °C. To `CCCCCCCC(=O)N(C)Cc1cccc(-c2ccc(C=CC(=O)O)c(F)c2)c1` belongs 91 °C; to `O=C(Nc1ccccc1C(=O)NCCc1nccs1)c1ccc(Cl)cc1`, 156 to 160 °C. To `CC(C)(C)c1ccc(C(=O)c2ccc(C(C)(C)C)cc2)cc1` belongs 132 to 136 °C; to `Nc1ccc(CCC(=O)Nc2ccc(C(=O)c3ccccc3)cc2)cc1[N+](=O)[O-]`, 72 to 73 °C. To `CCCn1c(=O)c2nc(C(C)Cc3ccc(OCC(=O)O)cc3)[nH]c2n(CCC)c1=O` (centres undefined) belongs 168 to 170 °C; to `CCCN1C(=O)CC(C)(C)c2cc(C)c(-c3cc(C=O)ccc3OC(F)(F)F)cc21`, 219 to 223 °C. In turn, `CCOC(=O)c1cc(=O)c2c(OCC(O)COc3ccc(CC)cc3)cccc2o1` (centres undefined) gave a melting point of 80 to 85 °C. For `c1ccc2c(-c3cnc(CCC4CCCCN4)s3)c[nH]c2c1` (centres undefined) the value was 155 to 157 °C. To `COc1c(NC(=O)c2cc3cccc(NC(=O)c4ccc(N)nc4)c3s2)cc(C(C)(C)C)cc1NS(C)(=O)=O` belongs 234 to 235 °C; to `CC(=O)OC1CSC(Oc2cncc(-c3ccc(F)c(C#N)c3)c2)C(OC(C)=O)C1OC(C)=O` (centres undefined), 178 °C. For `CCOC(=O)C(C)(C)Oc1cccc2c1CC(O)C(SC)C2` (centres undefined) the value was 132 to 134 °C. In the case of `Nc1ccc2c(=O)[nH]c(=O)n(CCCCN3CCC(OC(c4ccccc4)c4ccccc4)CC3)c2c1`, the melting point lay within 162 to 164 °C.

`CN1Cc2c(C#N)ncn2-c2cccc(F)c2C1=O` showed a melting point of more than 250 °C. For `CCOC(=O)CCN1C(=O)C(NC(=O)Nc2ccc(Cl)cc2)N=C(c2ccccc2)c2ccccc21` (centres undefined), the melting point was 251 to 253 °C.

`CCOC(=O)CC(=O)c1ccc(-c2ccccc2)cc1`: the melting point lay within 75 to 77 °C. To `O=C(Nc1ccc2ccc(Cl)nc2n1)c1ccccc1F` belongs 222 °C. For `Cn1ncc(/C=C/C(=O)Nc2ccc(CN)cc2)c1-c1ccc(F)cc1` the value was 201 to 202 °C; for `Cc1ccc(N2N=C(C(F)(F)F)CC2c2ccc(S(C)(=O)=O)cc2)cc1` (centres undefined), 140 to 143 °C; for `CCOC(=O)C(C)c1ccc2nc(-c3ccccc3)oc2c1` (centres undefined), 46 °C. For `Cc1oc(-c2ccc3ccccc3c2)nc1/C=C/c1ccc(C=O)cc1` the value was 162 to 163 °C.
